Each compound was assayed on Alopecurus myosuroides (assay: Pre-emergence herbicidal effect against ALOMY). Settings: 1280 g/ha, visual score after 3 weeks, 100% = plants have died, 0% = like control plants.
Assay type: in vivo
Procedure, shortened: (§1)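 Visual scoring of plant damage, in percent relative to untreated controls, was done 3 weeks after treatment. Compounds, as wettable powders or emulsion concentrates, were applied to covering soil over freshly sown seeds at a water rate of 600 to 800 L/ha with 0.2% wetting agent.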

Compound	Pre-emergence action against ALOMY [%]
CCOC(=O)CSc1nn(-c2ccccc2F)c(-c2ccc(F)c(F)c2)c1Cl [Example I-001]	100
CCOC(=O)CSc1nn(-c2cc(F)ccc2F)c(-c2ccc(F)c(F)c2)c1Br [Example I-013]	100
CCOC(=O)C(C)Sc1nn(-c2ccccc2F)c(-c2ccc(F)c(F)c2)c1Br (centres unmarked) [Example I-015]	100

These compounds were tested on Digitaria sanguinalis (assay: Pre-emergence herbicidal effect against DIGSA). Settings: 1280 g/ha, visual score after 3 weeks, 100% = plants have died, 0% = like control plants.
Assay type: in vivo
Procedure, shortened: as §1

Compound	Pre-emergence action against DIGSA [%]
CCOC(=O)CSc1nn(-c2ccccc2F)c(-c2ccc(F)c(F)c2)c1Cl [Example I-001]	100
CCOC(=O)CSc1nn(-c2cc(F)ccc2F)c(-c2ccc(F)c(F)c2)c1Br [Example I-013]	100
CCOC(=O)C(C)Sc1nn(-c2ccccc2F)c(-c2ccc(F)c(F)c2)c1Br (centres unmarked) [Example I-015]	100

What follows are compounds tested on Echinochloa crus-galli (assay: Pre-emergence herbicidal effect against ECHCG). Settings: 1280 g/ha, visual score after 3 weeks, 100% = plants have died, 0% = like control plants.
Assay type: in vivo
Procedure, shortened: as §1

Compound	Pre-emergence action against ECHCG [%]
CCOC(=O)CSc1nn(-c2cc(F)ccc2F)c(-c2ccc(F)c(F)c2)c1Br [Example I-013]	100
CCOC(=O)C(C)Sc1nn(-c2ccccc2F)c(-c2ccc(F)c(F)c2)c1Br (centres unmarked) [Example I-015]	100

Each compound was assayed on Lolium rigidum (assay: Pre-emergence herbicidal effect against LOLRI). Settings: 1280 g/ha, visual score after 3 weeks, 100% = plants have died, 0% = like control plants.
Assay type: in vivo
Procedure, shortened: as §1

Compound	Pre-emergence action against LOLRI [%]
CCOC(=O)CSc1nn(-c2ccccc2F)c(-c2ccc(F)c(F)c2)c1Cl [Example I-001]	100
CCOC(=O)CSc1nn(-c2cc(F)ccc2F)c(-c2ccc(F)c(F)c2)c1Br [Example I-013]	100
CCOC(=O)C(C)Sc1nn(-c2ccccc2F)c(-c2ccc(F)c(F)c2)c1Br (centres unmarked) [Example I-015]	100

The compounds below were run on Poa annua (assay: Pre-emergence herbicidal effect against POAAN). Settings: 1280 g/ha, visual score after 3 weeks, 100% = plants have died, 0% = like control plants.
Assay type: in vivo
Procedure, shortened: as §1

Compound	Pre-emergence action against POAAN [%]
CCOC(=O)CSc1nn(-c2ccccc2F)c(-c2ccc(F)c(F)c2)c1Cl [Example I-001]	100
CCOC(=O)CSc1nn(-c2cc(F)ccc2F)c(-c2ccc(F)c(F)c2)c1Br [Example I-013]	100
CCOC(=O)C(C)Sc1nn(-c2ccccc2F)c(-c2ccc(F)c(F)c2)c1Br (centres unmarked) [Example I-015]	100

Each compound was assayed on Setaria viridis (assay: Pre-emergence herbicidal effect against SETVI). Settings: 1280 g/ha, visual score after 3 weeks, 100% = plants have died, 0% = like control plants.
Assay type: in vivo
Procedure, shortened: as §1

Compound	Pre-emergence action against SETVI [%]
CCOC(=O)CSc1nn(-c2ccccc2F)c(-c2ccc(F)c(F)c2)c1Cl [Example I-001]	100
CCOC(=O)CSc1nn(-c2cc(F)ccc2F)c(-c2ccc(F)c(F)c2)c1Br [Example I-013]	100
CCOC(=O)C(C)Sc1nn(-c2ccccc2F)c(-c2ccc(F)c(F)c2)c1Br (centres unmarked) [Example I-015]	100

What follows are compounds tested on Amaranthus retroflexus (assay: Pre-emergence herbicidal effect against AMARE). Settings: 1280 g/ha, visual score after 3 weeks, 100% = plants have died, 0% = like control plants.
Assay type: in vivo
Procedure, shortened: as §1

Compound	Pre-emergence action against AMARE [%]
CCOC(=O)CSc1nn(-c2ccccc2F)c(-c2ccc(F)c(F)c2)c1Cl [Example I-001]	100
CCOC(=O)CSc1nn(-c2cc(F)ccc2F)c(-c2ccc(F)c(F)c2)c1Br [Example I-013]	100

What follows are compounds tested on Bassia scoparia (assay: Pre-emergence herbicidal effect against KCHSC). Settings: 1280 g/ha, visual score after 3 weeks, 100% = plants have died, 0% = like control plants.
Assay type: in vivo
From the text: 1. Pre-emergence herbicidal effect and crop plant compatibility Seeds of monocotyledonous and dicotyledonous weed plants and crop plants are laid out in sandy loam soil in wood-fibre pots and covered with soil. The compounds of the invention, formulated in the form of wettable powders (WP) or as emulsion concentrates (EC), are then applied to the surface of the covering soil as aqueous suspension or emulsion at a water application rate equating to 600 to 800 L/ha with addition of 0.2% wetting agent. After the treatment, the pots are placed in a greenhouse and kept under good growth conditions for the trial plants. The damage to the test plants is scored visually after a test period of 3 weeks by comparison with untreated controls (herbicidal activity in percent (%): 100% activity=the plants have died, 0% activity=like control plants). [table]

Compound	Pre-emergence action against KCHSC [%]
CCOC(=O)CSc1nn(-c2cc(F)ccc2F)c(-c2ccc(F)c(F)c2)c1Br [Example I-013]	90
CCOC(=O)C(C)Sc1nn(-c2ccccc2F)c(-c2ccc(F)c(F)c2)c1Br (centres unmarked) [Example I-015]	100

The compounds below were run on Tripleurospermum inodorum (assay: Pre-emergence herbicidal effect against MATIN). Settings: 1280 g/ha, visual score after 3 weeks, 100% = plants have died, 0% = like control plants.
Assay type: in vivo
Procedure, shortened: as §1

Compound	Pre-emergence action against MATIN [%]
CCOC(=O)CSc1nn(-c2ccccc2F)c(-c2ccc(F)c(F)c2)c1Cl [Example I-001]	90
CCOC(=O)CSc1nn(-c2cc(F)ccc2F)c(-c2ccc(F)c(F)c2)c1Br [Example I-013]	100
CCOC(=O)C(C)Sc1nn(-c2ccccc2F)c(-c2ccc(F)c(F)c2)c1Br (centres unmarked) [Example I-015]	100

These compounds were tested on Stellaria media (assay: Pre-emergence herbicidal effect against STEME). Settings: 1280 g/ha, visual score after 3 weeks, 100% = plants have died, 0% = like control plants.
Assay type: in vivo
Procedure, shortened: as §1

Compound	Pre-emergence action against STEME [%]
CCOC(=O)CSc1nn(-c2ccccc2F)c(-c2ccc(F)c(F)c2)c1Cl [Example I-001]	100
CCOC(=O)CSc1nn(-c2cc(F)ccc2F)c(-c2ccc(F)c(F)c2)c1Br [Example I-013]	100
CCOC(=O)C(C)Sc1nn(-c2ccccc2F)c(-c2ccc(F)c(F)c2)c1Br (centres unmarked) [Example I-015]	100

Each compound was assayed on Veronica persica (assay: Pre-emergence herbicidal effect against VERPE). Settings: 1280 g/ha, visual score after 3 weeks, 100% = plants have died, 0% = like control plants.
Assay type: in vivo
Procedure, shortened: as §1

Compound	Pre-emergence action against VERPE [%]
CCOC(=O)CSc1nn(-c2ccccc2F)c(-c2ccc(F)c(F)c2)c1Cl [Example I-001]	100
CCOC(=O)CSc1nn(-c2cc(F)ccc2F)c(-c2ccc(F)c(F)c2)c1Br [Example I-013]	100
CCOC(=O)C(C)Sc1nn(-c2ccccc2F)c(-c2ccc(F)c(F)c2)c1Br (centres unmarked) [Example I-015]	100

What follows are compounds tested on Alopecurus myosuroides (assay: Post-emergence herbicidal effect against ALOMY). Settings: 1280 g/ha, visual score after about 3 weeks, 100% = plants have died, 0% = like control plants.
Assay type: in vivo
Procedure, shortened: (§2)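 Greenhouse test, sandy loam soil; one-leaf-stage plants sprayed 2–3 wk after sowing. Percent action rated by eye ~3 wk later against untreated plants.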

Compound	Post-emergence action against ALOMY [%]
CCOC(=O)CSc1nn(-c2ccccc2F)c(-c2ccc(F)c(F)c2)c1Cl [Example I-001]	100
CCOC(=O)CSc1nn(-c2cc(F)ccc2F)c(-c2ccc(F)c(F)c2)c1Br [Example I-013]	100
CCOC(=O)C(C)Sc1nn(-c2ccccc2F)c(-c2ccc(F)c(F)c2)c1Br (centres unmarked) [Example I-015]	100

Each compound was assayed on Digitaria sanguinalis (assay: Post-emergence herbicidal effect against DIGSA). Settings: 1280 g/ha, visual score after about 3 weeks, 100% = plants have died, 0% = like control plants.
Assay type: in vivo
Procedure, shortened: as §2

Compound	Post-emergence action against DIGSA [%]
CCOC(=O)CSc1nn(-c2ccccc2F)c(-c2ccc(F)c(F)c2)c1Cl [Example I-001]	100
CCOC(=O)CSc1nn(-c2cc(F)ccc2F)c(-c2ccc(F)c(F)c2)c1Br [Example I-013]	100

These compounds were tested on Echinochloa crus-galli (assay: Post-emergence herbicidal effect against ECHCG). Settings: 1280 g/ha, visual score after about 3 weeks, 100% = plants have died, 0% = like control plants.
Assay type: in vivo
Procedure, shortened: as §2

Compound	Post-emergence action against ECHCG [%]
CCOC(=O)CSc1nn(-c2ccccc2F)c(-c2ccc(F)c(F)c2)c1Cl [Example I-001]	100
CCOC(=O)C(C)Sc1nn(-c2ccccc2F)c(-c2ccc(F)c(F)c2)c1Br (centres unmarked) [Example I-015]	100

Each compound was assayed on Poa annua (assay: Post-emergence herbicidal effect against POAAN). Settings: 1280 g/ha, visual assessment about 3 weeks after treatment, 100% = plants have died, 0% = like control plants.
Assay type: in vivo
Procedure, shortened: as §2

Compound	Post-emergence action against POAAN [%]
CCOC(=O)CSc1nn(-c2ccccc2F)c(-c2ccc(F)c(F)c2)c1Cl [Example I-001]	100
CCOC(=O)CSc1nn(-c2cc(F)ccc2F)c(-c2ccc(F)c(F)c2)c1Br [Example I-013]	100
CCOC(=O)C(C)Sc1nn(-c2ccccc2F)c(-c2ccc(F)c(F)c2)c1Br (centres unmarked) [Example I-015]	100

The compounds below were run on Setaria viridis (assay: Post-emergence herbicidal effect against SETVI). Settings: 1280 g/ha, visual assessment about 3 weeks after treatment, 100% = plants have died, 0% = like control plants.
Assay type: in vivo
Procedure, shortened: as §2

Compound	Post-emergence action against SETVI [%]
CCOC(=O)CSc1nn(-c2ccccc2F)c(-c2ccc(F)c(F)c2)c1Cl [Example I-001]	90

These compounds were tested on Abutylon threophrasti (assay: Post-emergence herbicidal effect against ABUTH). Settings: 1280 g/ha, visual assessment about 3 weeks after treatment, 100% = plants have died, 0% = like control plants.
Assay type: in vivo
Procedure, shortened: as §2

Compound	Post-emergence action against ABUTH [%]
CCOC(=O)CSc1nn(-c2ccccc2F)c(-c2ccc(F)c(F)c2)c1Cl [Example I-001]	90
CCOC(=O)CSc1nn(-c2cc(F)ccc2F)c(-c2ccc(F)c(F)c2)c1Br [Example I-013]	90
CCOC(=O)C(C)Sc1nn(-c2ccccc2F)c(-c2ccc(F)c(F)c2)c1Br (centres unmarked) [Example I-015]	90

The compounds below were run on Amaranthus retroflexus (assay: Post-emergence herbicidal effect against AMARE). Settings: 1280 g/ha, visual assessment about 3 weeks after treatment, 100% = plants have died, 0% = like control plants.
Assay type: in vivo
Procedure: [table] 2. Post-emergence herbicidal effect and crop plant compatibility Seeds of monocotyledonous and dicotyledonous weed and crop plants are laid out in sandy loam soil in wood-fibre pots, covered with soil and cultivated in a greenhouse under good growth conditions. 2 to 3 weeks after sowing, the test plants are treated at the one-leaf stage. The compounds of the invention, formulated in the form of wettable powders (WP) or as emulsion concentrates (EC), are then sprayed onto the green parts of the plants as aqueous suspension or emulsion at a water application rate equating to 600 to 800 l/ha with addition of 0.2% wetting agent. After the test plants have been left to stand in the greenhouse under optimal growth conditions for about 3 weeks, the action of the preparations is assessed visually in comparison to untreated controls (herbicidal action in percent (%): 100% activity=the plants have died, 0% activity=like control plants).

Compound	Post-emergence action against AMARE [%]
CCOC(=O)CSc1nn(-c2ccccc2F)c(-c2ccc(F)c(F)c2)c1Cl [Example I-001]	90
CCOC(=O)CSc1nn(-c2cc(F)ccc2F)c(-c2ccc(F)c(F)c2)c1Br [Example I-013]	100

What follows are compounds tested on Bassia scoparia (assay: Post-emergence herbicidal effect against KCHSC). Settings: 1280 g/ha, visual assessment about 3 weeks after treatment, 100% = plants have died, 0% = like control plants.
Assay type: in vivo
Procedure, shortened: as §2

Compound	Post-emergence action against KCHSC [%]
CCOC(=O)CSc1nn(-c2ccccc2F)c(-c2ccc(F)c(F)c2)c1Cl [Example I-001]	90
CCOC(=O)CSc1nn(-c2cc(F)ccc2F)c(-c2ccc(F)c(F)c2)c1Br [Example I-013]	90
CCOC(=O)C(C)Sc1nn(-c2ccccc2F)c(-c2ccc(F)c(F)c2)c1Br (centres unmarked) [Example I-015]	90

The compounds below were run on Tripleurospermum inodorum (assay: Post-emergence herbicidal effect against MATIN). Settings: 1280 g/ha, visual assessment about 3 weeks after treatment, 100% = plants have died, 0% = like control plants.
Assay type: in vivo
Procedure, shortened: as §2

Compound	Post-emergence action against MATIN [%]
CCOC(=O)CSc1nn(-c2ccccc2F)c(-c2ccc(F)c(F)c2)c1Cl [Example I-001]	100
CCOC(=O)CSc1nn(-c2cc(F)ccc2F)c(-c2ccc(F)c(F)c2)c1Br [Example I-013]	100

These compounds were tested on Stellaria media (assay: Post-emergence herbicidal effect against STEME). Settings: 1280 g/ha, visual assessment about 3 weeks after treatment, 100% = plants have died, 0% = like control plants.
Assay type: in vivo
Procedure, shortened: as §2

Compound	Post-emergence action against STEME [%]
CCOC(=O)CSc1nn(-c2ccccc2F)c(-c2ccc(F)c(F)c2)c1Cl [Example I-001]	100
CCOC(=O)CSc1nn(-c2cc(F)ccc2F)c(-c2ccc(F)c(F)c2)c1Br [Example I-013]	100

The compounds below were run on Veronica persica (assay: Post-emergence herbicidal effect against VERPE). Settings: 1280 g/ha, visual assessment about 3 weeks after treatment, 100% = plants have died, 0% = like control plants.
Assay type: in vivo
Procedure, shortened: as §2

Compound	Post-emergence action against VERPE [%]
CCOC(=O)CSc1nn(-c2ccccc2F)c(-c2ccc(F)c(F)c2)c1Cl [Example I-001]	100
CCOC(=O)CSc1nn(-c2cc(F)ccc2F)c(-c2ccc(F)c(F)c2)c1Br [Example I-013]	100
CCOC(=O)C(C)Sc1nn(-c2ccccc2F)c(-c2ccc(F)c(F)c2)c1Br (centres unmarked) [Example I-015]	100
